Laboratory results published in patent publication US20080031982A1 (Metaproteomics, LLC, priority 2006, published 2008).

Tests used:
Experiment in all cases: KinaseProfiler Assay
[1] = test system: AMPK
[2] = target: CDK5/p35 (Homo sapiens, UniProt Q00535)
[3] = target: CDK6/cyclinD3 (Homo sapiens, UniProt Q00534)
[4] = target: CDK9/cyclin T1 (Homo sapiens, UniProt P50750)
[5] = test system: CK1(y)
[6] = target: EphA2 (Homo sapiens, UniProt P29317)
[7] = target: T1, JAK3 (Homo sapiens, UniProt P52333)
T1 sequence (P52333 1-1124): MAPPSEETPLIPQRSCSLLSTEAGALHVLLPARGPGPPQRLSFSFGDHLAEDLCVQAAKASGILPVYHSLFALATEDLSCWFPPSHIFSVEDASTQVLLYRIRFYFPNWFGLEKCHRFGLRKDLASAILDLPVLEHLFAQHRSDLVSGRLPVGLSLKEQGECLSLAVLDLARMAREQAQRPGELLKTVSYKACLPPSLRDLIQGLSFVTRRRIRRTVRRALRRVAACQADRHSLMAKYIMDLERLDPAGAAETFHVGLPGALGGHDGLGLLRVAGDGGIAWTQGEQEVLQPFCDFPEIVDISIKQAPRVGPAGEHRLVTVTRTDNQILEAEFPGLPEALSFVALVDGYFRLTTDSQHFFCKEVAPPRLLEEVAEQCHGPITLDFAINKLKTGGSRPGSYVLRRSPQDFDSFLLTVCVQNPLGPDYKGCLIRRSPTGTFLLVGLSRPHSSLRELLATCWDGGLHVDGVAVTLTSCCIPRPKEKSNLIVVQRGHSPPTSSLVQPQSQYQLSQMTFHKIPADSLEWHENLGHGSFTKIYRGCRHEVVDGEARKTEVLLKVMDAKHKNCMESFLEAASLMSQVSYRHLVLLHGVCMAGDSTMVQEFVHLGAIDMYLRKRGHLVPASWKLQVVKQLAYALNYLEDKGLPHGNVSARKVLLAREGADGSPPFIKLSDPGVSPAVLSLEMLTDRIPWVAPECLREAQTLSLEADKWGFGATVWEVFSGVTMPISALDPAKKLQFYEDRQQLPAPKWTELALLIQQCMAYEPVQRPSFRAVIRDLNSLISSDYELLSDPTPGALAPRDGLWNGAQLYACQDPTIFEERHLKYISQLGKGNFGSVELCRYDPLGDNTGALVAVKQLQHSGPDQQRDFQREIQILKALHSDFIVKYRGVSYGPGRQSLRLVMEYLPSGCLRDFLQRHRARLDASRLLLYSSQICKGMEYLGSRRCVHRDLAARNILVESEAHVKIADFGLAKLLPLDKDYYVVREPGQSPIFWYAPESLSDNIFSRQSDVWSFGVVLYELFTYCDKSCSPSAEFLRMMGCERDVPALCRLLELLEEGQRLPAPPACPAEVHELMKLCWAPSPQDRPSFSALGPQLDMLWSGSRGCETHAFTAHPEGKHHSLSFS

[8] = test system: Lyn
[9] = target: MINK (Homo sapiens, UniProt Q8N4C8)
[10] = target: Ros (Homo sapiens, UniProt P08922)
[11] = test system: Rsk1
[12] = target: T2, TSSK2 (Homo sapiens, UniProt Q96PF2)
T2 sequence (Q96PF2 1-358): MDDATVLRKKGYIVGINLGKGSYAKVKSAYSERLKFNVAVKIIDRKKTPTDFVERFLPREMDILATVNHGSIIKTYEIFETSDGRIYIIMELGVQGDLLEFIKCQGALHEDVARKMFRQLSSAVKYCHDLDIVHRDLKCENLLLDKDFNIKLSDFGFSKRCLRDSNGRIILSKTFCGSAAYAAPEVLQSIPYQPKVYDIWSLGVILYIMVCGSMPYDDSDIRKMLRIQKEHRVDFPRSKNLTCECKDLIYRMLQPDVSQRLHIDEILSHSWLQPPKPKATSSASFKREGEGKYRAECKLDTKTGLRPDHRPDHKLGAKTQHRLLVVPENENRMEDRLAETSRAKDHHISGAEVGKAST

[13] = target: ZIPK (Homo sapiens, UniProt O43293)
[14] = target: CK1γ2 (Homo sapiens, UniProt P78368)
Sequence of CK1γ2 (P78368 whole entry): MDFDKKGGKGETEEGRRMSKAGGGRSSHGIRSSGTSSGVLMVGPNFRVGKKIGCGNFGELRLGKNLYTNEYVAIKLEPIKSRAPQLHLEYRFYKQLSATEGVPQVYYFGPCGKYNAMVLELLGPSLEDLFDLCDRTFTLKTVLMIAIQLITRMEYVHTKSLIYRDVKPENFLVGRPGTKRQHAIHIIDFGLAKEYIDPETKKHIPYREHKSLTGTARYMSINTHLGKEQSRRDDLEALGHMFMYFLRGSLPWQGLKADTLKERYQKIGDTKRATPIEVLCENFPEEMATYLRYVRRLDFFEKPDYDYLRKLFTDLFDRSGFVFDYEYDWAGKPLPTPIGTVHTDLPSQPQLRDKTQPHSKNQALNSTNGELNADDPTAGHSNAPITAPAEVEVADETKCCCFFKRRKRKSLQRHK

Sequence of CDK9/cyclin T1 (P50750 whole entry): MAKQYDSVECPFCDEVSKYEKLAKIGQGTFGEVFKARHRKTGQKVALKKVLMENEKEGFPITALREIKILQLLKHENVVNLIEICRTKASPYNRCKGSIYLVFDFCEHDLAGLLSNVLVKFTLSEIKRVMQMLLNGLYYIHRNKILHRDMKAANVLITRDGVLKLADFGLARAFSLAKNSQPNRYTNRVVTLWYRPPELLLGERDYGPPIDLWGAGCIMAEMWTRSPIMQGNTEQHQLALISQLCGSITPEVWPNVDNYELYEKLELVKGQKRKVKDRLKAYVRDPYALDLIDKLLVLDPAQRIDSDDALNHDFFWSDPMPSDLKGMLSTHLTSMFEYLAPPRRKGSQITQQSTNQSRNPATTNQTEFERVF
Sequence of CDK9/cyclin T1 (O60563 whole entry partner): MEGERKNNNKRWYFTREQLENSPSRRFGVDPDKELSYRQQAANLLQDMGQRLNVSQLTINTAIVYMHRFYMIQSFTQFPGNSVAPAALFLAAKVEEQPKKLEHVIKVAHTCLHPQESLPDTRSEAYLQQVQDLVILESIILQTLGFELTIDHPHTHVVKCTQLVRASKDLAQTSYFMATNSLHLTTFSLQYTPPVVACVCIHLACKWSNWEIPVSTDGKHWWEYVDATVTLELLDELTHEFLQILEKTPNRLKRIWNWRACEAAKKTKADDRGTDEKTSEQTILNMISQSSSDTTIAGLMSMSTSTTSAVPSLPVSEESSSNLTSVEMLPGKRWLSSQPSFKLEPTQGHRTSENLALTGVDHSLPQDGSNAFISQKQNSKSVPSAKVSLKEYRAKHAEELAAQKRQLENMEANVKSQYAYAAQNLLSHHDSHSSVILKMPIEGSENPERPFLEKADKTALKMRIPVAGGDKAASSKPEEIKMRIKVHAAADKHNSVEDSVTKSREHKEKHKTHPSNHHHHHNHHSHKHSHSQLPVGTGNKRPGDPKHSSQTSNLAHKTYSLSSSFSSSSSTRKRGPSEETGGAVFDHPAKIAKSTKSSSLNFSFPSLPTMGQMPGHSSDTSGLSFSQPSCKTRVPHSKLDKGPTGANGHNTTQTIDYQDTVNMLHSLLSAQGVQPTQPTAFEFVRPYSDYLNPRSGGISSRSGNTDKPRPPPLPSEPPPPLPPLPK
Sequence of CDK6/cyclinD3 (Q00534 whole entry): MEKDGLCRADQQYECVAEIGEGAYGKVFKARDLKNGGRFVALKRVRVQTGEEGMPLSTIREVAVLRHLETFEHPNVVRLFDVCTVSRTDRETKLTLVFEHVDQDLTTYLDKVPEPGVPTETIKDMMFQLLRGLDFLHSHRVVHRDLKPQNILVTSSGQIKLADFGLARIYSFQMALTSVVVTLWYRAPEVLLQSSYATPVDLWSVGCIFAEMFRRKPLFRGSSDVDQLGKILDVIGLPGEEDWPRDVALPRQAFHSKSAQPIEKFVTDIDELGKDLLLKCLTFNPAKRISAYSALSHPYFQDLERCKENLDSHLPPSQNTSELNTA
Sequence of CDK6/cyclinD3 (P30281 whole entry partner): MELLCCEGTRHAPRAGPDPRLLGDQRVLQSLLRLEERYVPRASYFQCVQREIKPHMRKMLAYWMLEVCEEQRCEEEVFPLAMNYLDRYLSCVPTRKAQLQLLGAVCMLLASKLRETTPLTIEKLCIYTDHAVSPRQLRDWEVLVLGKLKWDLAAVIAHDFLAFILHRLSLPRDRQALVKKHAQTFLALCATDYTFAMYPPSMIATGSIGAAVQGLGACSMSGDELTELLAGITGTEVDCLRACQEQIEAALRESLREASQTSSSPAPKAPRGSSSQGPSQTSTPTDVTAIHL
Sequence of CDK5/p35 (Q00535 whole entry): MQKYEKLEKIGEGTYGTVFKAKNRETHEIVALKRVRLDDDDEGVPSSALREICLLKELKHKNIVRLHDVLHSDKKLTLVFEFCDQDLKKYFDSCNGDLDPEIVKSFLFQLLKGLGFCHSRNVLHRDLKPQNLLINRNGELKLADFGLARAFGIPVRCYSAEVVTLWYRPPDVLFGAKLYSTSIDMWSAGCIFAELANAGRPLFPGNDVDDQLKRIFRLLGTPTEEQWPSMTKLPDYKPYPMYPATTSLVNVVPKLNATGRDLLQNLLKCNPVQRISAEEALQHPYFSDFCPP
Sequence of CDK5/p35 (Q15078 whole entry partner): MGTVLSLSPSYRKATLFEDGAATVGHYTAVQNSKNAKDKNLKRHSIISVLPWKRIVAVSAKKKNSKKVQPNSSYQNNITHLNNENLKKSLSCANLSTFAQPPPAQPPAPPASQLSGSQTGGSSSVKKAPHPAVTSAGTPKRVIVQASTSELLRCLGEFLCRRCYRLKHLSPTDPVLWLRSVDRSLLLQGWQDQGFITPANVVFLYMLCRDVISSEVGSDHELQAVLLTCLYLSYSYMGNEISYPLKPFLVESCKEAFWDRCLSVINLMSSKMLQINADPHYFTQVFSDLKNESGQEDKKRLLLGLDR
Sequence of MINK (Q8N4C8 whole entry): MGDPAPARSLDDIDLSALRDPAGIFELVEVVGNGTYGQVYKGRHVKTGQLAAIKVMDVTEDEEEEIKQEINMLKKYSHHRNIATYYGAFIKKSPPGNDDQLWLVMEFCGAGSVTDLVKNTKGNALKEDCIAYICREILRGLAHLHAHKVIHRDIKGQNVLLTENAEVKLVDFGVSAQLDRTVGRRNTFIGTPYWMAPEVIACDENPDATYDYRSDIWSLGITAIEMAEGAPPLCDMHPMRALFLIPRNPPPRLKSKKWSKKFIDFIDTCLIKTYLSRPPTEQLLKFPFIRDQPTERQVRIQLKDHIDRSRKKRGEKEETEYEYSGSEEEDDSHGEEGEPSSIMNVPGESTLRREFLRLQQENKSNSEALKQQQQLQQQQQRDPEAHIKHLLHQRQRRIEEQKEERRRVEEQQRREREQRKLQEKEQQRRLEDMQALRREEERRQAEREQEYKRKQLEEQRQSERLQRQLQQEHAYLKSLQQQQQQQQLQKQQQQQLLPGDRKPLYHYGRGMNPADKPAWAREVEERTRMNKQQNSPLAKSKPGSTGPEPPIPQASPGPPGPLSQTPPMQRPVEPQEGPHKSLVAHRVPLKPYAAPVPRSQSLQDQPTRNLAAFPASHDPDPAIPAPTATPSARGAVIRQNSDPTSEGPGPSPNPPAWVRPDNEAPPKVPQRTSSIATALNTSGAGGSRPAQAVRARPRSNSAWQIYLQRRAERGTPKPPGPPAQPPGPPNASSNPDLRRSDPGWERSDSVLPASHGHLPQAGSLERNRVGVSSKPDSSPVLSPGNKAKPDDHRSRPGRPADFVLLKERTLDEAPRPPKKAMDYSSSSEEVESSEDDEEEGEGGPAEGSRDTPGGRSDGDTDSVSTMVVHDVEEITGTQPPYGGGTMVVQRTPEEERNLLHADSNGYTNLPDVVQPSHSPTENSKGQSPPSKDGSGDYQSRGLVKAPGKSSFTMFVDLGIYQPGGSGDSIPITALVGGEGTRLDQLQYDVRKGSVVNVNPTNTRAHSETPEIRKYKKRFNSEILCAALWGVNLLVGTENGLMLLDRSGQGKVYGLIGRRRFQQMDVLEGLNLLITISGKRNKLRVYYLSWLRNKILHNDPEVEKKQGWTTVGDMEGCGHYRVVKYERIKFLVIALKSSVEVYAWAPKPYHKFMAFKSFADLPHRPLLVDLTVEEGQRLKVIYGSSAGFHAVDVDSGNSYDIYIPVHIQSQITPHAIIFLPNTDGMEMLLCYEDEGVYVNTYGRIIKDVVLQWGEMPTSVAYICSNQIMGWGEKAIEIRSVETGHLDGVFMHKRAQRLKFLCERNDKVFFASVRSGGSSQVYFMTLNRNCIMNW
Sequence of EphA2 (P29317 24-976): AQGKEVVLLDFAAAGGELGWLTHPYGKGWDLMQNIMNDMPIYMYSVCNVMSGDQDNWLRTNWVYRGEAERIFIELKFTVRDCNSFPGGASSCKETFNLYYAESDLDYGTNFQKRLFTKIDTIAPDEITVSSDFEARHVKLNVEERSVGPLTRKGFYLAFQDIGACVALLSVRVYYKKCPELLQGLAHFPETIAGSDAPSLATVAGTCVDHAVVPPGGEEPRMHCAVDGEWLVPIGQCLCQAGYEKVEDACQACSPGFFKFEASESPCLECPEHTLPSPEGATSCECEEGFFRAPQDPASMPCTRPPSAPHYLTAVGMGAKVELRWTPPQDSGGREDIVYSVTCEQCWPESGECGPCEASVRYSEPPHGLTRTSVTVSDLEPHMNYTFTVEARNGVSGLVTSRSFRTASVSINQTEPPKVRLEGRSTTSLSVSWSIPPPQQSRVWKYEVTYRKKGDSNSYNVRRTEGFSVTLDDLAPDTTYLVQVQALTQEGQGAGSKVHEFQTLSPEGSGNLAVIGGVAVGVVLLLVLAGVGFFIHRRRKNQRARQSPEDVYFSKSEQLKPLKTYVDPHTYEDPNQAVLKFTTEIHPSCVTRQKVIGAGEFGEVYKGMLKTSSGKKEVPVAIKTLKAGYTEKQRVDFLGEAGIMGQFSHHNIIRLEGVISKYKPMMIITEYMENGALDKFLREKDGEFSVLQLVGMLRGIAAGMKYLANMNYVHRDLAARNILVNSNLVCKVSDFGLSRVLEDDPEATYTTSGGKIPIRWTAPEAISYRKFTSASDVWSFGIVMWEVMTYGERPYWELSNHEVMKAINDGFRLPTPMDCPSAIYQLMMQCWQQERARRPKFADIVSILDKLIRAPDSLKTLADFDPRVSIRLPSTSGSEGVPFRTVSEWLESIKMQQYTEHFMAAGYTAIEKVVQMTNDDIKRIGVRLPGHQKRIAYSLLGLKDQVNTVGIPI

## COc1cc(O)c(CC=C(C)C)c(O)c1C(=O)/C=C/c1ccc(O)cc1 [Xanthohumol, xanthohumol]
[1]; 1 ug/ml
  Kinase activity, % of Control: 122 % of Control
[1]; 5 ug/ml
  Kinase activity, % of Control: 113 % of Control
[1]; 25 ug/ml
  Kinase activity, % of Control: 90 % of Control
[1]; 50 ug/ml
  Kinase activity, % of Control: 81 % of Control
[2]; 1 ug/ml
  Kinase activity, % of Control: 103 % of Control
[2]; 5 ug/ml
  Kinase activity, % of Control: 102 % of Control
[2]; 25 ug/ml
  Kinase activity, % of Control: 41 % of Control
[2]; 50 ug/ml
  Kinase activity, % of Control: 44 % of Control
[3]; 1 ug/ml
  Kinase activity, % of Control: 110 % of Control
[3]; 5 ug/ml
  Kinase activity, % of Control: 79 % of Control
[3]; 25 ug/ml
  Kinase activity, % of Control: 23 % of Control
[3]; 50 ug/ml
  Kinase activity, % of Control: 7 % of Control
[4]; 1 ug/ml
  Kinase activity, % of Control: 110 % of Control
[4]; 5 ug/ml
  Kinase activity, % of Control: 107 % of Control
[4]; 25 ug/ml
  Kinase activity, % of Control: 45 % of Control
[4]; 50 ug/ml
  Kinase activity, % of Control: 31 % of Control
[5]; 1 ug/ml
  Kinase activity, % of Control: 91 % of Control
[5]; 5 ug/ml
  Kinase activity, % of Control: 63 % of Control
[5]; 25 ug/ml
  Kinase activity, % of Control: 37 % of Control
[5]; 50 ug/ml
  Kinase activity, % of Control: 9 % of Control
[6]; 1 ug/ml
  Kinase activity, % of Control: 124 % of Control
[6]; 25 ug/ml
  Kinase activity, % of Control: 121 % of Control
[6]; 50 ug/ml
  Kinase activity, % of Control: 52 % of Control
[7]; 1 ug/ml
  Kinase activity, % of Control: 104 % of Control
[7]; 5 ug/ml
  Kinase activity, % of Control: 84 % of Control
[7]; 25 ug/ml
  Kinase activity, % of Control: 17 % of Control
[7]; 50 ug/ml
  Kinase activity, % of Control: 5 % of Control
[8]; 1 ug/ml
  Kinase activity, % of Control: 97 % of Control
[8]; 5 ug/ml
  Kinase activity, % of Control: 40 % of Control
[8]; 25 ug/ml
  Kinase activity, % of Control: 4 % of Control
[8]; 50 ug/ml
  Kinase activity, % of Control: 2 % of Control
[9]; 1 ug/ml
  Kinase activity, % of Control: 42 % of Control
[9]; 5 ug/ml
  Kinase activity, % of Control: 10 % of Control
[9]; 25 ug/ml
  Kinase activity, % of Control: 5 % of Control
[9]; 50 ug/ml
  Kinase activity, % of Control: 7 % of Control
[10]; 1 ug/ml
  Kinase activity, % of Control: 101 % of Control
[10]; 5 ug/ml
  Kinase activity, % of Control: 99 % of Control
[10]; 25 ug/ml
  Kinase activity, % of Control: 85 % of Control
[10]; 50 ug/ml
  Kinase activity, % of Control: 94 % of Control
[11]; 1 ug/ml
  Kinase activity, % of Control: 34 % of Control
[11]; 5 ug/ml
  Kinase activity, % of Control: 49 % of Control
[11]; 25 ug/ml
  Kinase activity, % of Control: 4 % of Control
[11]; 50 ug/ml
  Kinase activity, % of Control: 0 % of Control
[12]; 1 ug/ml
  Kinase activity, % of Control: 102 % of Control
[12]; 5 ug/ml
  Kinase activity, % of Control: 95 % of Control
[12]; 25 ug/ml
  Kinase activity, % of Control: 61 % of Control
[12]; 50 ug/ml
  Kinase activity, % of Control: 48 % of Control
[13]; 1 ug/ml
  Kinase activity, % of Control: 115 % of Control
[13]; 5 ug/ml
  Kinase activity, % of Control: 74 % of Control
[13]; 25 ug/ml
  Kinase activity, % of Control: 20 % of Control
[13]; 50 ug/ml
  Kinase activity, % of Control: 70 % of Control
[14]; 1 ug/ml
  Kinase activity, % of Control: 92 % of Control
[14]; 5 ug/ml
  Kinase activity, % of Control: 48 % of Control
[14]; 25 ug/ml
  Kinase activity, % of Control: 30 % of Control
[14]; 50 ug/ml
  Kinase activity, % of Control: 12 % of Control
